Measured values taken from the supplement of paper PMC10307832.

compound: CC(C)(C)c1nc(-c2cccc(NS(=O)(=O)c3c(F)cccc3F)c2F)c(-c2ccnc(N)n2)s1 [Dabrafenib] + CC1(C)CCC(c2ccc(Cl)cc2)=C(CN2CCN(c3ccc(C(=O)NS(=O)(=O)c4ccc(N[C@H](CCN5CCOCC5)CSc5ccccc5)c(S(=O)(=O)C(F)(F)F)c4)cc3)CC2)C1 [Navitoclax] (partner 0.5 µM); experiment: relative viability (nuclei count vs DMSO), 5 days (fraction); higher = more cells survive; details: first compound 0.3 µM
Method in brief: (§1)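 The day after seeding in 1536-well plates, lung cancer cell lines were treated by pin tool with a single drug, or with a fixed anchor-drug dose together with five library-drug doses (not always all listed) in √10 steps. After 5 days, a combined fix-and-stain solution (final 0.05% Triton X-100, 1% formaldehyde, 1 ug/ml Hoechst) was added. Nuclei counted on 4× images gave relative viability as treated counts over vehicle counts, reported as the median of duplicate plates.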

Compared with HCC-15, LU99A is lower in relative viability: 0.833 for the first, 0.753 for the second.

Compared with EKVX, COR-L23 is lower in relative viability: 1.11 for the first, 0.894 for the second.

First: NCI-H1437
Second: RERF-LC-KJ
The relative viability of the first is lower: 1.1 for the first, 1.15 for the second.

Compared with NCI-H1734, BEN is lower in relative viability: 0.85 for the first, 0.0801 for the second.

Going from NCI-H460 to H3255, the relative viability falls from 1.06 to 0.566.

Compared with SK-LU-1, NCI-H1793 is higher in relative viability: 0.567 for the first, 0.669 for the second.

Compared with NCI-H23, SW 1573 is higher in relative viability: 0.957 for the first, 1.06 for the second.

In the case of NCI-H838, the relative viability is reported as 1.28.

compound: NC(=O)c1ccc(N(C(N)=O)c2c(F)cccc2F)nc1-c1ccc(F)cc1F [VX-702] + CC1(C)CCC(c2ccc(Cl)cc2)=C(CN2CCN(c3ccc(C(=O)NS(=O)(=O)c4ccc(N[C@H](CCN5CCOCC5)CSc5ccccc5)c(S(=O)(=O)C(F)(F)F)c4)cc3)CC2)C1 [Navitoclax] (partner 0.5 µM); experiment: as above; details: first compound 0.02 µM
Method in brief: as §1

Going from NCI-H2170 to UMC-11, the relative viability falls from 0.625 to 0.274.

Going from NCI-H596 to HCC-827, the relative viability rises from 0.959 to 1.01.

First: COR-L 105
Second: NCI-H2126
The relative viability of the first is lower: 0.82 for the first, 0.832 for the second.

Compared with NCI-H647, LOU-NH91 is lower in relative viability: 1.1 for the first, 0.638 for the second.

First: HCC-78
Second: NCI-H1651
The relative viability of the first is lower: 0.673 for the first, 0.933 for the second.

Compared with NCI-H1755, HOP-62 is higher in relative viability: 1.08 for the first, 1.28 for the second.

Going from PC-14 to NCI-H1650, the relative viability rises from 1.06 to 1.1.

First: ChaGo-K-1
Second: A-427
The relative viability of the first is higher: 0.991 for the first, 0.877 for the second.

Going from NCI-H1355 to HCC-15, the relative viability falls from 0.988 to 0.691.

Going from LU99A to EKVX, the relative viability rises from 0.857 to 0.96.

Compared with COR-L23, NCI-H1437 is higher in relative viability: 0.968 for the first, 1.07 for the second.

Compared with RERF-LC-KJ, NCI-H1734 is lower in relative viability: 1.18 for the first, 0.814 for the second.

Going from BEN to NCI-H460, the relative viability rises from 0.0513 to 1.15.

First: H3255
Second: SK-LU-1
The relative viability of the first is lower: 0.508 for the first, 0.7 for the second.

First: NCI-H1793
Second: NCI-H23
The relative viability of the first is lower: 0.601 for the first, 0.701 for the second.

Going from SW 1573 to NCI-H838, the relative viability rises from 0.938 to 1.25.

same assay, conditions: first compound 0.2 µM

Going from NCI-H2170 to UMC-11, the relative viability falls from 0.372 to 0.293.

Compared with NCI-H596, HCC-827 is higher in relative viability: 0.946 for the first, 0.988 for the second.

First: COR-L 105
Second: NCI-H2126
The relative viability of the first is lower: 0.61 for the first, 0.814 for the second.

Going from NCI-H647 to LOU-NH91, the relative viability falls from 1.02 to 0.638.

First: HCC-78
Second: NCI-H1651
The relative viability of the first is lower: 0.772 for the first, 0.96 for the second.

Going from NCI-H1755 to HOP-62, the relative viability falls from 0.971 to 0.848.

Going from PC-14 to NCI-H1650, the relative viability rises from 1.01 to 1.16.

First: ChaGo-K-1
Second: A-427
The relative viability of the first is lower: 0.403 for the first, 0.919 for the second.

Going from NCI-H1355 to HCC-15, the relative viability falls from 0.819 to 0.648.

Going from LU99A to EKVX, the relative viability rises from 0.878 to 0.932.

First: COR-L23
Second: NCI-H1437
The relative viability of the first is lower: 0.979 for the first, 1.08 for the second.

Going from RERF-LC-KJ to NCI-H1734, the relative viability falls from 1.1 to 0.695.

Going from BEN to NCI-H460, the relative viability rises from 0.104 to 1.03.

Going from H3255 to SK-LU-1, the relative viability rises from 0.446 to 0.757.

Compared with NCI-H1793, NCI-H23 is higher in relative viability: 0.405 for the first, 0.798 for the second.

First: SW 1573
Second: NCI-H838
The relative viability of the first is lower: 0.809 for the first, 1.13 for the second.

same assay, conditions: first compound 0.6325 µM

Compared with NCI-H2170, UMC-11 is lower in relative viability: 0.665 for the first, 0.303 for the second.

First: NCI-H596
Second: HCC-827
The relative viability of the first is lower: 0.881 for the first, 0.891 for the second.

Compared with COR-L 105, NCI-H2126 is lower in relative viability: 0.851 for the first, 0.779 for the second.

First: NCI-H647
Second: LOU-NH91
The relative viability of the first is higher: 1.02 for the first, 0.643 for the second.

Compared with HCC-78, NCI-H1651 is higher in relative viability: 0.806 for the first, 0.982 for the second.

Going from NCI-H1755 to HOP-62, the relative viability falls from 1.05 to 1.03.

Compared with PC-14, NCI-H1650 is higher in relative viability: 1.04 for the first, 1.43 for the second.

Going from ChaGo-K-1 to A-427, the relative viability rises from 0.898 to 0.905.

First: NCI-H1355
Second: HCC-15
The relative viability of the first is higher: 0.902 for the first, 0.656 for the second.

First: LU99A
Second: EKVX
The relative viability of the first is lower: 0.813 for the first, 0.882 for the second.

First: COR-L23
Second: NCI-H1437
The relative viability of the first is lower: 1.18 for the first, 1.23 for the second.

First: RERF-LC-KJ
Second: NCI-H1734
The relative viability of the first is higher: 0.83 for the first, 0.685 for the second.

Going from BEN to NCI-H460, the relative viability rises from 0.0606 to 1.08.

Going from H3255 to SK-LU-1, the relative viability rises from 0.501 to 0.66.

First: NCI-H1793
Second: NCI-H23
The relative viability of the first is lower: 0.497 for the first, 0.805 for the second.

Compared with SW 1573, NCI-H838 is higher in relative viability: 0.831 for the first, 1.19 for the second.

same assay, conditions: first compound 2 µM

First: NCI-H2170
Second: UMC-11
The relative viability of the first is higher: 0.607 for the first, 0.359 for the second.

Compared with NCI-H596, HCC-827 is lower in relative viability: 0.994 for the first, 0.939 for the second.

Going from COR-L 105 to NCI-H2126, the relative viability falls from 1.08 to 0.698.

Going from NCI-H647 to LOU-NH91, the relative viability falls from 1.23 to 0.422.

Going from HCC-78 to NCI-H1651, the relative viability rises from 0.852 to 1.27.

Going from NCI-H1755 to HOP-62, the relative viability rises from 1.04 to 1.15.

Compared with PC-14, NCI-H1650 is higher in relative viability: 1.03 for the first, 1.31 for the second.

First: ChaGo-K-1
Second: A-427
The relative viability of the first is higher: 1.4 for the first, 0.962 for the second.

Going from NCI-H1355 to HCC-15, the relative viability falls from 1.01 to 0.699.

Compared with LU99A, EKVX is higher in relative viability: 0.698 for the first, 0.986 for the second.

Compared with COR-L23, NCI-H1437 is higher in relative viability: 1.27 for the first, 1.29 for the second.
